Results reported in ChEMBL document CHEMBL3988442, “University of Dundee, Small-Polar-MMV Screening Library” (2021).
“And” between values parts separate entries of the source, which are not always exact repeats. Identical values can stand only once.

Experiments:
Lysine--tRNA ligase = Lysine--tRNA ligase (Plasmodium falciparum (isolate 3D7), UniProt Q8IDJ8); test: Pf-KRS-1 (Lysyl-RNA Synthetase-1, KRS-1, cytosolic KRS) from Plasmodium falciparum. Inhibitor assay, 384 well plate, luminescence read.; type: functional
[1] = target: T1, Coenzyme A biosynthesis bifunctional protein CoaBC (Mycobacterium tuberculosis (strain ATCC 25618 / H37Rv), UniProt P9WNZ1); test: Biomol Green assay for MtCoaBC inhibitor, OD650 read; type: functional
T1 sequence (P9WNZ1 whole entry): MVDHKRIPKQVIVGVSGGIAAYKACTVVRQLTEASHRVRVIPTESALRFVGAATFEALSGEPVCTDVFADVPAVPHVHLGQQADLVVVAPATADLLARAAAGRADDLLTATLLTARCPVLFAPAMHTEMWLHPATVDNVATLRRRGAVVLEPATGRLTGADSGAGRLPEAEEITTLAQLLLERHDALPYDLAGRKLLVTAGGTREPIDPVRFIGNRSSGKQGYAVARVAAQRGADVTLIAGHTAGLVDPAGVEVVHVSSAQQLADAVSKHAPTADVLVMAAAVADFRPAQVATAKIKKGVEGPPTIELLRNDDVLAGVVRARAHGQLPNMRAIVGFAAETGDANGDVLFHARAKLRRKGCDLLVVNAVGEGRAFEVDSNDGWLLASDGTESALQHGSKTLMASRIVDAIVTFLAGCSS

Histidine--tRNA ligase = target: T2, Histidine--tRNA ligase (Leishmania infantum, UniProt A4I591); test: Leishmania infantum Histidine tRNA synthetase (LdHisRS); type: functional
T2 sequence (A4I591 whole entry): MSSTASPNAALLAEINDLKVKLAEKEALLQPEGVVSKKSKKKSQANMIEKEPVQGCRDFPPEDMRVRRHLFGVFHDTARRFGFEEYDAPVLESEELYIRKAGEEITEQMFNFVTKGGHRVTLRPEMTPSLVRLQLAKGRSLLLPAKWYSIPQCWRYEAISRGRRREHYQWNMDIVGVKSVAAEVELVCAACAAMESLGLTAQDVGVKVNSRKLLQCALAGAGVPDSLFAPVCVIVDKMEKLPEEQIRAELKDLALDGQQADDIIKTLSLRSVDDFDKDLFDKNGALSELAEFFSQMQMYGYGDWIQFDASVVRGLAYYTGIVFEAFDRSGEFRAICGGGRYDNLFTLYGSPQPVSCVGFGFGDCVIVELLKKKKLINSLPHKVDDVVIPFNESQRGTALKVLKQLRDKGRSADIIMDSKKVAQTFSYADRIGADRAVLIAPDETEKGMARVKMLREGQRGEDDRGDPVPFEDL

Plasmodium falciparum = test: Calibr Malaria Delayed Death Assay SOP; type: functional, organism-based
ClpP1P2 = ClpP1P2 (Mycobacterium tuberculosis (strain ATCC 25618 / H37Rv), UniProt P9WPC3+P9WPC5); test: in vitro assay to detect presence of AMC directly proportional to the activity of ClpP1P2. GHDDI collaboration.; type: functional
Leishmania donovani = test: Leishmania intramacrophage assay; type: functional, organism-based; conditions: Leishmania donovani
[2] = In vitro enzyme assay to detect hydrolysis of chlorophenol red-beta-D-[…] directly proportional to the number of Toxoplasma stably expressing beta-galactosidase; type: functional, organism-based, Toxoplasma gondii; conditions: Toxoplasma gondii

Lysine--tRNA ligase, sequence (Q8IDJ8 whole entry): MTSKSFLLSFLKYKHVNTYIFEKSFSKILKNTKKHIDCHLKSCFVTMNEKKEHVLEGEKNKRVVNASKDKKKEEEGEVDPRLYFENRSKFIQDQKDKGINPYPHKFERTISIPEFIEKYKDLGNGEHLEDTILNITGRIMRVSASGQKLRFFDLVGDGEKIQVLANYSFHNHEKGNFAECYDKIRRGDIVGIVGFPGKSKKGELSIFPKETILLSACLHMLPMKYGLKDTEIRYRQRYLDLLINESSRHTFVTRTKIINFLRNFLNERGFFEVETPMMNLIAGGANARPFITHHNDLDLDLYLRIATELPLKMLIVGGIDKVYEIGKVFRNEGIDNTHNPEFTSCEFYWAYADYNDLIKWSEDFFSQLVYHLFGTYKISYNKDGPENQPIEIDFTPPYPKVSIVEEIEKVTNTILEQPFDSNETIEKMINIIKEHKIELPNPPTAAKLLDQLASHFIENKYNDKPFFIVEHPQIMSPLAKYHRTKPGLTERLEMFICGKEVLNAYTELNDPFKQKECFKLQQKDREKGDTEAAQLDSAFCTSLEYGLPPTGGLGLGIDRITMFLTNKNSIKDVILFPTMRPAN
ClpP1P2, sequence (P9WPC5 whole entry): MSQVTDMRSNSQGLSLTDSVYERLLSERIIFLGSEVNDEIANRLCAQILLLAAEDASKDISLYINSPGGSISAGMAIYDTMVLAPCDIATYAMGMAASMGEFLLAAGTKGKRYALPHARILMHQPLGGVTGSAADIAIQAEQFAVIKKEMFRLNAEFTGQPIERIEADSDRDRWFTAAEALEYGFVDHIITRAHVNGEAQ
ClpP1P2, sequence (P9WPC3 whole entry): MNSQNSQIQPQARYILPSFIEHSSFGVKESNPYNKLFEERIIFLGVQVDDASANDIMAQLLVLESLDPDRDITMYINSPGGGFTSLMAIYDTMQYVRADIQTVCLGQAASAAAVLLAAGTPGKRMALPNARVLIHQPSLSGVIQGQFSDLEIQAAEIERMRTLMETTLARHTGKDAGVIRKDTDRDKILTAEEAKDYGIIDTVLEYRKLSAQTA

SMILES | IC50 (Lysine--tRNA ligase) | IC50 [1] | IC50 (Histidine--tRNA ligase) | further results
Cc1sc(Oc2ccccc2Cl)nc1C(=O)O | > 50.1 µM |  |  | 
COCCC(=O)N1CCC2(CC1)CC(c1ccccc1)CN(C1CC1)C2 (stereo unspecified) | > 50.1 µM |  |  | 
Cc1ccc(-n2nnc(C(=O)NCC3CCCCC3)n2)cc1 | > 50.1 µM |  |  | 
CC(C)C1CN(C(=O)c2cc(=O)[nH]c(=O)[nH]2)CCCN1CC1CC1 (stereo unspecified) | > 50.1 µM |  |  | 
COc1nccnc1N1CCC2(CC1)[C@H](O)C[C@@H]2OCCN(C)C | > 50.1 µM |  |  | 
O=C(CC1CCCC1)N1CC[C@H]2[C@H]1CCN2c1nncs1 | > 50.1 µM |  |  | 
CC(C)NC(=O)N1CCc2c(CNc3ncccn3)cncc2C1 | > 50.1 µM |  |  | 
Cc1csc(CNC(=O)N(C)Cc2ccc3c(c2)OCCO3)n1 | > 50.1 µM |  |  | 
Cc1noc(C)c1CN1CC[C@H]2[C@H]1CCN2CC1CCOCC1 | > 50.1 µM |  |  | 
COc1c(C)cnc(CN(C)C(=O)c2cccnc2N(C)C)c1C | > 50.1 µM |  |  | 
Cc1cccc2c1CCN(c1cc(N3CCCC3CO)ncn1)C2 (stereo unspecified) | > 50.1 µM |  |  | 
CSc1cccc(CN(C)C(=O)Nc2nc(C)n(C)n2)c1 | > 50.1 µM |  |  | 
CN(C)CCNC(=O)c1ccc(S(=O)(=O)N[C@@H]2CCNC2)cc1 | > 50.1 µM |  |  | 
COc1cc(OC)nc(N2CCC3(CC2)OCCCC3O)n1 (stereo unspecified) | > 50.1 µM |  |  | 
COc1ccccc1CNc1ccc2nncn2n1 | > 50.1 µM |  |  | 
COC(=O)c1ccc2ccn(CC3CCCCO3)c(=O)c2c1 (stereo unspecified) | 38.2 µM |  |  | 
COc1ccc(-n2c(CCC(=O)O)nc3ccccc32)cc1CO |  | > 50.1 µM | 68.6 µM and 44 µM | 
c1cnn(C2CN(c3ncnc4[nH]ccc34)C2)c1 | > 50.1 µM |  |  | 
Cc1nc(CN(C)C2CCN(Cc3c(C)noc3C)C2)no1 (stereo unspecified) | > 50.1 µM |  |  | 
CSc1ncnc(NCc2cccs2)c1C#N | > 50.1 µM |  |  | 
COc1cccc(C(=O)N(C)Cc2ncc(C)c(OC)c2C)c1OC | > 50.1 µM |  |  | 
C=C(C)Cn1ccc2cc(OC)c(F)cc2c1=O | > 50.1 µM |  |  | 
COCC1CN(C(=O)Cc2ccccn2)Cc2ncn(C)c21 (stereo unspecified) | > 50.1 µM |  |  | 
CN1CC(c2ccccc2)CC12CCN(C(=O)c1cccnc1)CC2 (stereo unspecified) | > 50.1 µM |  |  | 

SMILES | IC50 (Lysine--tRNA ligase) | IC50 [1] | IC50 (Histidine--tRNA ligase) | further results
CC(C)C(=O)NC1CCN(c2cccc(OC(F)(F)F)c2)C1=O (stereo unspecified) | > 50.1 µM |  |  | 
CCCS(=O)(=O)N1CCOC2(COCCN(C(C)=O)C2)C1 (stereo unspecified) | > 50.1 µM |  |  | 
O=C(NCc1ccc(Cl)s1)c1ccc(N2CCOC2=O)cc1 | > 50.1 µM |  |  | 
NC(=O)c1ccc(CN2C(=O)C3(CCNCC3)Nc3ccccc32)cc1 | > 50.1 µM |  |  | 
c1csc(CN2CCCN(c3ncnc4[nH]ccc34)CC2)c1 | > 50.1 µM |  |  | 
CC1(C)CCN1C(=O)c1cc(F)cc2[nH]cnc12 | > 50.1 µM |  |  | 
COc1ccc(NC(=O)N2CCCC2c2ccncc2)cn1 (stereo unspecified) | > 50.1 µM |  |  | 
COc1ccsc1C(=O)Nc1cc(Br)c(=O)n(C)c1 |  | > 30.2 µM | 19.7 µM and 23.3 µM | 
Cc1ccc(C)n1-c1ccc(C(=O)NCCNc2ncccn2)cc1 |  | > 30.2 µM | > 100 µM | 
COc1cccc(CNc2cc(C)nc(-c3ccncc3)n2)c1OC |  | > 30.2 µM | 91.8 µM and > 100 µM | pIC50 (Plasmodium falciparum): 6.336; IC50 (Plasmodium falciparum; Plasmodium falciparum): 465 nM
c1csc(C2(NCc3csc(C4CC4)n3)CCCC2)n1 |  | > 30.2 µM | 57.3 µM and 56.6 µM | 
Cc1nc(-c2ccc(CC(=O)N3CCN(C(=O)C(C)C)CC3)cc2)cs1 |  | > 30.2 µM | 24.8 µM and 12.4 µM | IC50 (ClpP1P2): 8.96 µM
O=S(=O)(CCCn1cncn1)Cc1ccc(F)cc1Cl |  | 4.13 µM and 4.68 µM | 10.5 µM and 17.6 µM | 
Cc1ccc(NS(=O)(=O)c2cnn(-c3ccccc3)c2)c(C(=O)O)c1 |  | 22.5 µM and 20.5 µM | 38.9 µM and 18.2 µM | 
O=C(O)CN1CCC(F)(F)C2(CCN(c3ccccc3)C2)C1 (stereo unspecified) |  | > 30.2 µM | 43.6 µM and 39.5 µM | IC50 (Leishmania donovani): > 50.1 µM
COc1ccc(-c2nc(CCNc3nnc(C)c(C)c3C#N)co2)cc1 |  | > 30.2 µM | 58.1 µM and 60.7 µM | 
COc1ccc(-n2cc(CNC(=O)c3ccc[nH]3)nn2)cc1 |  | > 30.2 µM | 33.4 µM and 45.8 µM | 
CS(=O)(=O)N1CCC2(CC1)CN(CCn1cccn1)C(=O)CO2 |  | > 50.1 µM | > 100 µM | 
Cc1cc(N2CCC(O)CC2)nc(C2CCCN2C)n1 (stereo unspecified) |  | > 30.2 µM | 31 µM and 38.1 µM | 
Cc1n[nH]c(C)c1-c1c(C#N)c(N)nc2c1CCc1[nH]ccc1-2 |  | > 30.2 µM | 16.8 µM and 18.1 µM | IC50 (ClpP1P2): > 100 µM
N#Cc1ccsc1N1CCC(Sc2ccncc2)C1=O (stereo unspecified) |  | > 30.2 µM | 17.7 µM and 33 µM | 
CCN(Cc1ccc2cccc(O)c2n1)CC1CCCO1 (stereo unspecified) |  | > 30.2 µM | 18.6 µM and 12.3 µM | 
NCC1Cc2cc(Oc3cc(F)c(CN4CCCC4)c(F)c3)ccc2O1 (stereo unspecified) |  | > 30.2 µM | 30.2 µM and 36.9 µM | IC50 (ClpP1P2): 20.8 µM; IC50 [2]: 20.4 µM
